Key:
Details in all cases: 4 days
U937 [1] = assay: area under dose-response curve (cell viability) (AUC (arbitrary, % viability x log concentration)); higher = less sensitive (more viable)
Method in brief: (§1)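 Drugs were dispensed robotically, one day after plating, onto fourteen leukemia cell lines in 384-well plates coated with extracellular matrix. Each drug was tested in duplicate at eight concentrations spanning 4–5 logs inside 10^–12–10^–4 M, adjusted per drug, and CellTiter-Glo readout followed after 4 days. Duplicates were averaged and a four-parameter sigmoid was fitted. The area under that fitted curve is the reported value.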

HL60 [2] = assay: as above
Method in brief: as §1

KASUMI1 [3] = assay: as above
Method in brief: as §1

KG1 [4] = assay: as above
Method in brief: as §1

MV4.11 [5] = assay: as above
Method in brief: as §1

MOLM/13 [6] = assay: as above
Method in brief: as §1

U937 [7] = assay: IC50 (cell viability) (log10 M)
Method in brief: (§2)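 Listed values are the IC50, taken from fitted curves. Each is the log10 M concentration at which a four-parameter curve crosses 50% viability; where that point is not reached, the highest concentration tested is given. Fourteen leukemia cell lines on extracellular-matrix-coated 384-well plates were exposed in duplicate to eight drug concentrations within 10^–12–10^–4 M, and viability was read with CellTiter-Glo after 4 days.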

HL60 [8] = assay: IC50 (cell viability) (log10 M)
Method in brief: as §2

OCI-AML3 = assay: IC50 (cell viability) (log10 M)
Method in brief: as §2

THP-1 = assay: IC50 (cell viability) (log10 M)
Method in brief: as §2

KASUMI1 [9] = assay: IC50 (cell viability) (log10 M)
Method in brief: as §2

NB4 = assay: IC50 (cell viability) (log10 M)
Method in brief: as §2

MOLM/16 = assay: IC50 (cell viability) (log10 M)
Method in brief: as §2

EOL-1 = assay: IC50 (cell viability) (log10 M)
Method in brief: as §2

KG1 [10] = assay: IC50 (cell viability) (log10 M)
Method in brief: as §2

SKM1 = assay: IC50 (cell viability) (log10 M)
Method in brief: as §2

MV4.11 [11] = assay: IC50 (cell viability) (log10 M)
Method in brief: as §2

MOLM/13 [12] = assay: IC50 (cell viability) (log10 M)
Method in brief: as §2

PL-21 = assay: IC50 (cell viability) (log10 M)
Method in brief: as §2

OCI-AML2 = assay: IC50 (cell viability) (log10 M)
Method in brief: as §2

| Structure (SMILES) | IC50 (log10 M) (U937 [7]) | IC50 (log10 M) (HL60 [8]) | IC50 (log10 M) (OCI-AML3) | IC50 (log10 M) (THP-1) | IC50 (log10 M) (MOLM/16) | IC50 (log10 M) (SKM1) | IC50 (log10 M) (MV4.11 [11]) | IC50 (log10 M) (MOLM/13 [12]) | IC50 (log10 M) (OCI-AML2) | area under dose-response curve (U937 [1]) | area under dose-response curve (HL60 [2]) | area under dose-response curve (KASUMI1 [3]) | area under dose-response curve (KG1 [4]) | area under dose-response curve (MV4.11 [5]) | area under dose-response curve (MOLM/13 [6]) | IC50 (log10 M) (KASUMI1 [9]) | IC50 (log10 M) (NB4) | IC50 (log10 M) (EOL-1) | IC50 (log10 M) (KG1 [10]) | IC50 (log10 M) (PL-21) |
| --- | --- | --- | --- | --- | --- | --- | --- | --- | --- | --- | --- | --- | --- | --- | --- | --- | --- | --- | --- | --- |
| O=C1NC(=O)[C@@H](c2cn3c4c(cccc24)CCC3)[C@@H]1c1c[nH]c2ccccc12 [ARQ-197] | -7.23 | -6.37 | -6.51 | -6.66 | -7.26 | -6.24 | -6.32 | -6.57 | -6.23 | 397 | 524 | 523 | 505 | 507 | 468 | -6.31 | -6.94 | -6.74 | -6.48 | -6.31 |
| CCNC(=O)c1noc(-c2cc(C(C)C)c(O)cc2O)c1-c1ccc(CN2CCOCC2)cc1 [NVP-AUY-922] | -9.02 | -8.8 | -8.71 | -8.49 | -9.61 | -8.91 | -9.64 | -7.27 | -9.28 | 222 | 299 | 213 | 331 | 144 | 313 | -9.19 | -8.86 | -9.55 | -8.55 | -8.84 |

More lines, main results first:

| IC50 (log10 M) (U937 [7]) | IC50 (log10 M) (HL60 [8]) | IC50 (log10 M) (OCI-AML3) | IC50 (log10 M) (THP-1) | IC50 (log10 M) (MOLM/16) | IC50 (log10 M) (SKM1) | IC50 (log10 M) (MV4.11 [11]) | IC50 (log10 M) (MOLM/13 [12]) | IC50 (log10 M) (OCI-AML2) | Structure (SMILES) | area under dose-response curve (U937 [1]) | area under dose-response curve (HL60 [2]) | area under dose-response curve (KASUMI1 [3]) | area under dose-response curve (KG1 [4]) | area under dose-response curve (MV4.11 [5]) | area under dose-response curve (MOLM/13 [6]) | IC50 (log10 M) (KASUMI1 [9]) | IC50 (log10 M) (NB4) | IC50 (log10 M) (EOL-1) | IC50 (log10 M) (KG1 [10]) | IC50 (log10 M) (PL-21) |
| --- | --- | --- | --- | --- | --- | --- | --- | --- | --- | --- | --- | --- | --- | --- | --- | --- | --- | --- | --- | --- |
| > -5 | > -5 | > -5 | > -5 | -5.46 | > -5 | -5.37 | -5.55 | -5.37 | Cc1nc(Nc2ncc(C(=O)Nc3c(C)cccc3Cl)s2)cc(N2CCN(CCO)CC2)n1 [Dasatinib] | 590 | 761 | 469 | 687 | 613 | 519 | > -5 | > -5 | -7.46 | -5.39 | -5.46 |
| -7.57 | -6.93 | -7.72 | -7.33 | -7.73 | -7.05 | -7.3 | -7.17 | -7.47 | COc1cc(OC)c(/C=C/S(=O)(=O)Cc2ccc(OC)c(NCC(=O)O)c2)c(OC)c1 | 330 | 473 | 474 | 403 | 363 | 387 | -6.87 | -7.28 | -7.51 | -7 | -7.41 |
| > -5 | > -5 | > -5 | > -5 | -5.47 | > -5 | -5.48 | -5.18 | > -5 | COc1cc2ncnc(Nc3ccc(F)c(Cl)c3)c2cc1OCCCN1CCOCC1 [Gefitinib] | 657 | 716 | 707 | 726 | 585 | 619 | > -5 | > -5 | -5.5 | -5.01 | -5.34 |
